Results as given in US11352551B2, “Proppant coatings containing antimicrobial agents” (Agienic, Inc., priority 2012, dated 2022).

Experiments:
[1] = room temperature; cited from earlier work
[2] = system: Desulfovibrio vulgaris (ATCC 29579); assay: Activity against sulfate reducing bacteria (3-tube most probable number method); type: cell-based; settings: 10 ppm (copper or gluteraldehyde); one hour; start 2×10^7 mpn/ml; SRB2 media

| SMILES | Water solubility [1] | log10 reduction of D. vulgaris [2] |
| --- | --- | --- |
| [Cu][Br] [CuBr, Copper(I) bromide] | 0.011 mg/mL | – |
| [Cl][Cu][Cl] [CuCl2, copper (II) chloride] | – | less than 3 log10 |
| [Cl-].[Cl-].[Zn+2] [ZnCl2, zinc chloride] | 4300 mg/mL | – |
| O=CCCCC=O [gluteraldehyde] | – | greater than 4.23 log10 |
